Paper PMC5863483, “Low HLA binding of diabetes-associated CD8+ T-cell epitopes is increased by post translational modifications” (BMC Immunology, 2018)
pIC50: −log10 of the molar value. Like-named read-outs stand apart in the source and are kept apart here. Each block holds one compound with its values, some of them ahead of it. *1 amine or outer side, *2 acyl side, *3 side chain or, on linkers, in order; H or OH if unused. Where a SMILES comes first, the peptide text is derived from it. Where no end group is shown, it is not given here. [ ]: non-standard residue; d: D form. γGlu = O=C(O)[C@H](CCC(=O)[*:2])N[*:1]; βAsp = O=C(O)[C@H](CC(=O)[*:2])N[*:1]; Cya = N[C@@H](CS(=O)(=O)O)C(=O)O; Cit = NC(=O)NCCC[C@H](N)C(=O)O

Key:
HLA-A*02:01 = HLA-A*02:01 (Homo sapiens, UniProt P04439, D140Y/D185E/D98H/E176V/E277Q/G131W/G231S/I119V/I121R/I166T/I218V/L300P/L318F/N151K/N90K/P208A/P217A/Q86G/Q94H/R138H/R169H/T345S); test: HLA-peptide competition binding assay, A*02:01
HLA-B*08:01 = HLA-B*08:01 (Homo sapiens, UniProt P01889, A93T/A95T/D138N/E176V/E187T/K202T/Q94N/R180D/S35A/V36M/Y33D/Y91F); test: biochemical
Description: The 138 peptides were tested for their capacity to bind their respective HLA class I restricting allele(s) in classical competition assays based on the inhibition of the binding of high affinity radiolabeled ligands to purified major histocompatibility (MHC) molecules, as described in the Methods. In instances where the precise restriction was not available, binding to the most common representative subtype from the same allele family was assayed (e.g., A*02:01 for A02; B*07:02 for B7; A*03:01 for A03, etc.). For epitopes reported to be restricted by multiple alleles, each restriction is shown separately.
Peptide-MHC affinities were measured using classical competition assays based on the inhibition of binding of a high affinity radiolabeled ligand to purified HLA class I molecules, as previously described. Briefly, 0.1–1 nM of radiolabeled peptide is co-incubated at room temperature with purified MHC in the presence of a cocktail of protease inhibitors. Following a two-day incubation, MHC bound radioactivity is determined by capturing MHC/peptide complexes on W6/32 (anti-HLA class I) mAb coated Lumitrac 600 plates (Greiner Bio-one, Frickenhausen, Germany), and bound cpm measured using the TopCount (Packard Instrument Co., Meriden, CT) microscintillation counter. […] Under the conditions utilized, where [label] < [MHC] and IC50 ≥ [MHC], measured IC50 values are reasonable approximations of true Kd. Each competitor peptide is tested at six different concentrations covering a 100,000-fold range, and in three or more independent experiments. As a positive control, the unlabeled version of the radiolabeled probe is also tested in each experiment.

[1] = read-out: IC50 nM, target assay A*02:01
[2] = read-out: A*02:01 binding (IC50 nM) WT
[3] = unmodified (WT) insulin peptide, competition binding assay, a dash indicates IC50 >40,000 nM, read-out: A*02:01 binding (IC50 nM) WT
[4] = post-translationally modified insulin peptide, competition binding assay, a dash indicates IC50 >40,000 nM, read-out: A*02:01 binding (IC50 nM) Modified

Compound: LEGSLQKRGI
IC50 (HLA-A*02:01; [3]): > 40000 nM

Compound: LLSLFSLWL [reference compound]
pIC50 (HLA-A*02:01): 6.82

Compound: EGSLQKRGIV
IC50 (HLA-A*02:01; [3]): > 40000 nM

Compound: C[C@@H](O)[C@H](NC(=O)[C@H](Cc1ccc(O)cc1)NC(=O)[C@H](Cc1ccccc1)NC(=O)[C@H](Cc1ccccc1)NC(=O)CNC(=O)[C@H](CCCNC(N)=O)NC(=O)[C@H](CCC(=O)O)NC(=O)CNC(=O)[C@@H](N)CS)C(=O)N1CCC[C@H]1C(=O)O (H-CGE[Cit]GFFYTP-OH; N-terminus and C-terminus assumed)
IC50 (HLA-A*02:01; [4]): > 40000 nM

Compound: FYTPKTRRE [reference compound]
IC50 (HLA-A*02:01; [3]): > 40000 nM
pIC50 (HLA-B*08:01): 4.88

Compound: EHLCGSHLV
pIC50 (HLA-A*02:01; post-translationally modified insulin-derived peptide, radiolabeled ligand competition, purified MHC, two-day incubation, three or more independent experiments, read-out: A*02:01 binding, Modified): 5.14

Compound: ERGYYYTPK
IC50 (HLA-A*02:01; read-out: A*02:01 binding (IC50 nM) Modified, post-translationally modified insulin peptide, competition binding assay, a dash indicates IC50 >40,000 nM): > 40000 nM

Compound: CC(C)C[C@H](NC(=O)[C@H](C)N)C(=O)N[C@@H](Cc1ccc(O)cc1)C(=O)N[C@@H](CC(C)C)C(=O)N[C@H](C(=O)N[C@@H](CS)C(=O)NCC(=O)N[C@@H](CCC(=O)O)C(=O)N[C@@H](CCCNC(N)=O)C(=O)O)C(C)C
pIC50 (HLA-A*02:01): 5.91

Compound: CC(C)C[C@H](NC(=O)[C@H](Cc1c[nH]cn1)NC(=O)CC[C@H](NC(=O)C[C@H](NC(=O)[C@@H](NC(=O)[C@@H](N)Cc1ccccc1)C(C)C)C(=O)O)C(=O)O)C(=O)N[C@@H](CS)C(=O)NCC(=O)N[C@@H](CO)C(=O)O [FVOZHLCGS] (H-FV[βAsp][γGlu]HLCGS-OH; N-terminus and C-terminus assumed)
IC50 (HLA-A*02:01; [4]): > 40000 nM

Compound: C[C@@H](O)[C@H](NC(=O)[C@H](Cc1ccc(O)cc1)NC(=O)[C@H](Cc1ccccc1)NC(=O)[C@H](Cc1ccccc1)NC(=O)CNC(=O)[C@H](CCCNC(N)=O)NC(=O)[C@H](CCC(=O)O)NC(=O)CN)C(=O)N1CCC[C@H]1C(=O)O (H-GE[Cit]GFFYTP-OH; N-terminus and C-terminus assumed)
IC50 (HLA-A*02:01; [4]): > 40000 nM

Compound: SHLVEALYLV [reference compound]
pIC50 (HLA-A*02:01): 5.67

Compound: RLLPLLALLAL [RLLPLLALLAL, reference compound]
IC50 (HLA-A*02:01; [1]): 109 nM

Compound: LVCGERGYF
IC50 (HLA-A*02:01; [4]): > 40000 nM

Compound: C[C@@H](O)[C@H](NC(=O)[C@H](CCCCN)NC(=O)[C@@H]1CCCN1C(=O)[C@@H](NC(=O)[C@H](Cc1ccc(O)cc1)NC(=O)[C@H](Cc1ccccc1)NC(=O)[C@H](Cc1ccccc1)NC(=O)CN)[C@@H](C)O)C(=O)N[C@@H](CCCNC(=N)N)C(=O)O
IC50 (HLA-A*02:01; [2]): 12200 nM

Compound: CC(C)C[C@H](NC(=O)[C@H](CC(=O)O)NC(=O)[C@H](CCC(=O)O)NC(=O)[C@H](C)NC(=O)[C@H](CCC(=O)O)NC(=O)[C@H](CCCNC(N)=O)NC(=O)[C@H](CCCNC(N)=O)NC(=O)[C@@H](NC(=O)[C@H](CCCCN)NC(=O)[C@@H]1CCCN1)[C@@H](C)O)C(=O)O (H-PKT[Cit][Cit]EAEDL-OH; N-terminus and C-terminus assumed)
IC50 (HLA-A*02:01; [4]): > 40000 nM

Other lines, results leading:

IC50 (HLA-A*02:01; [1]): 9510 nM
Compound: YIPSCTVVGM [reference compound]

IC50 (HLA-A*02:01; [2]): 8870 nM
Compound: VEALYLVCGE

IC50 (HLA-A*02:01; [4]): > 40000 nM
Compound: CC(C)C[C@H](NC(=O)[C@H](Cc1c[nH]cn1)NC(=O)[C@H](CO)NC(=O)CNC(=O)[C@H](CS(=O)(=O)O)NC(=O)[C@H](CC(C)C)NC(=O)[C@H](Cc1c[nH]cn1)NC(=O)[C@H](CCC(N)=O)NC(=O)[C@H](CC(N)=O)NC(=O)[C@@H](N)C(C)C)C(=O)O [VNQHLBGSHL] (H-VNQHL[Cya]GSHL-OH; N-terminus and C-terminus assumed)

IC50 (HLA-A*02:01; [1]): 35 nM
Compound: LLQEYNWEL [reference compound]

IC50 (HLA-A*02:01; [1]): 1230 nM
Compound: NLFLFLFAV [reference compound]

IC50 (HLA-A*02:01; [1]): 6930 nM
Compound: LASEKVYAI [reference compound]

IC50 (HLA-A*02:01; [1]): > 40000 nM
Compound: WGPDPAAA [reference compound]

IC50 (HLA-A*02:01; [4]): > 40000 nM
Compound: CC(C)[C@H](N)C(=O)N[C@@H](CS(=O)(=O)O)C(=O)NCC(=O)N[C@@H](CCC(=O)O)C(=O)N[C@@H](CCCNC(=N)N)C(=O)NCC(=O)N[C@@H](Cc1ccc(O)cc1)C(=O)N[C@@H](Cc1ccc(O)cc1)C(=O)N[C@@H](Cc1ccc(O)cc1)C(=O)N[C@H](C(=O)O)[C@@H](C)O [VBGERGYYYT] (H-V[Cya]GERGYYYT-OH; N-terminus and C-terminus assumed)

IC50 (HLA-A*02:01; [1]): 3.2 nM
Compound: WLLPLWAALPL [reference compound]

IC50 (HLA-A*02:01; [1]): 1310 nM
Compound: ALTAVAEEV [reference compound]

IC50 (HLA-A*02:01; [4]): > 40000 nM
Compound: VCGERGYFYT

IC50 (HLA-A*02:01; [1]): 709 nM
Compound: RMMEYGTTMV [reference compound]

IC50 (HLA-A*02:01; [1]): 52 nM
Compound: RLLPLWAAL [RLLPLWAAL, reference compound]
